Here are results for three compounds from US9045505B2, “Nitric oxide donors” (University of Otago, priority 2006, dated 2015).

The test system of one experiment is liver mitochondria. The experiment in a line: S-nitrosation of mitochondrial protein thiols (chemiluminescence SNO assay). The class given is biochemical, rat. The settings on record: 500 μM. As to the method: FIG. 11 is a series of graphs showing S-nitrosation of mitochondrial thiols by MitoSNAP. (a) Time course of S-nitrosation of mitochondrial proteins by MitoSNAP. Liver mitochondria (1 mg protein) were incubated in 1 ml KCl buffer supplemented with rotenone and succinate in the presence of 5 μM MitoSNAP. At various times mitochondria were treated with 10 mM N-ethylmaleimide (NEM), isolated by centrifugation and the S-nitrosothiol content assessed. Data are of a typical experiment showing means±range of duplicate samples for each time point, each measured in duplicate. The experiment was repeated twice. (b) S-nitrosation of mitochondrial proteins by different concentrations of MitoSNAP and SNAP. Aliquots of liver mitochondria were incubated with the indicated concentrations of MitoSNAP or SNAP for […] in the presence or absence of 500 nM FCCP and then assessed for S-nitrosothiol content as in (a). For the +NEM sample, 10 mM NEM was added to the mitochondria and 1 min later 5 μM MitoSNAP was added and incubated for a further 2.5 min. Data are of a typical experiment showing means±range of duplicate samples for each time point, each measured in duplicate. The experiment was repeated twice. (c) S-nitrosation of cellular protein thiols by MitoSNAP. C2C12 cells were preincubated for 5 min in 2 ml cell culture medium containing either 20 μM FCCP or DMSO carrier, then 5 μM MitoSNAP or SNAP was added. After further incubation for 5 min at 37° C. in the dark, the medium was removed and the content of S-nitrosated proteins was measured. Data are means±range of the duplicate determinations. […] (d) S-nitrosation of a mitochondria-enriched cell subfraction. C2C12 cells were preincubated for 5 min in cell culture medium containing either 20 μM FCCP or dimethylsulfoxide (DMSO) carrier, then 5 μM MitoSNAP was added. After 5 min at 37° C. in the dark, the medium was removed and the cells were processed to isolate a mitochondria-enriched fraction and S-nitrosated protein was then determined Data are mean±sem of triplicate determinations (+MitoSNO1), or mean±range of duplicate determinations (+FCCP). (e & f) Visualisation of S-nitrosated mitochondrial proteins by copper/ascorbate-dependent labelling of thiols with a Cy3 fluorophore. Liver (e) or heart (f) mitochondria (1 mg protein) were incubated in 1 ml KCl buffer supplemented with rotenone and succinate in the presence of no additions, 10 μM MitoSNAP or 500 μM diamide for 5 min. S-nitrosated thiols were then selectively tagged with Cy3 maleimide and protein (10 μg) was then separated on a 12.5% SDS PAGE gel which was stained with coomassie blue and scanned for Cy3 fluorescence. The Cy3 fluorescence (SNO) and coomassie staining (coomassie) of each gel is shown.
FIG. 13 is a trace and graph showing limited S-nitrosation of mitochondria by DetaNONOate. […] Where indicated 500 μM DetaNONOate was added and the concentration of NO^• was measured over time, before 5 μM OxyHb was added. […] Then protein pellets were resuspended and processed for analysis of protein S-nitrosothiols. Control incubations in the presence of 10 mM NEM were also carried out. Data are means±range of two independent experiments each being the average of four mitochondrial incubations.
Nitrite, nitric oxide and S-nitrosothiol measurements. Nitrite was analyzed by the Griess assay (Molecular Probes). Nitric oxide was measured using an NO^• electrode (World Precision Instruments Ltd, UK) connected to an Apollo 4000 Free Radical Analyser. The electrode was inserted into a stirred, sealed 3 ml chamber with a Clark type O2 electrode (Rank Brothers, UK) built into its base and was thermostatted at 37° C. The NO^• electrode was calibrated by adding SNAP to argon-purged, saturated CuCl. OxyHb was prepared by reduction of bovine methemoglobin with sodium dithionite.

For the next experiment, the system named is rat liver mitochondria. The experiment in a line: Membrane potential-dependent uptake into isolated mitochondria (TPP-selective electrode). The class given is biochemical. The method, then: FIG. 8 is a trace showing the uptake of MitoSNAP and MitoNAP by energized mitochondria measured using an ion-selective electrode. For (a) and (b) mitochondria (2 mg protein/ml) were incubated in KCl buffer supplemented with rotenone in a stirred 3 ml chamber thermostatted at 37° C. and shielded from ambient light. An electrode selective for the TPP cation was inserted and calibrated by five sequential 1 μM additions of MitoNAP (a) or MitoSNAP (b). Succinate (10 mM) was then added to energize the mitochondria, followed by the uncoupler FCCP (0.5 μM). Rapid uptake of MitoNAP by energized mitochondria was observed and this was reversed by abolishing the membrane potential with the uncoupler FCCP (a). Energised mitochondria also rapidly accumulated MitoSNAP (b). However, in contrast to MitoNAP, uncoupling apparently led to only partial release of the accumulated MitoSNAP (b). This apparent incomplete release of MitoSNAP on uncoupling is presumably because MitoSNAP is converted to MitoNAP within mitochondria and this generates a different response from the electrode.
Mitochondrial incubations were usually in KCl buffer (120 mM KCl, 10 mM HEPES, 1 mM EGTA, 100 μM N,N-bis(2-bis[carboxymethyl]aminoethyl) glycine (DTPA) and 10 μM neocuproine, pH 7.2) with 10 mM succinate and 4 μg/ml rotenone in the dark at 37° C., unless stated otherwise. An electrode selective for the TPP moiety of MitoSNAP and MitoNAP was made and used as described previously (Asin-Cayuela, J., Manas, A. R., James, A. M., Smith, R. A. & Murphy, M. P. Fine-tuning the hydrophobicity of a mitochondria-targeted antioxidant. FEBS Letts. 571, 9-16 (2004)). Respiration rates were measured in a Clark type O2 electrode (Rank Brothers, UK). To measure GSH and GSSG, mitochondria (1 mg protein/ml) were incubated with 0-10 μM MitoSNO1 or MitoNAP for 10 min, pelleted by centrifugation and the GSH and GSSG contents assessed by the recycling assay (Scarlett, J. L., Packer, M. A., Porteous, C. M. & Murphy, M. P. Alterations to glutathione and nicotinamide nucleotides during the mitochondrial permeability transition induced by peroxynitrite. Biochem. Pharmacol. 52, 1047-1055 (1996)). The measurement of exposed mitochondrial protein thiols is described below.
Rat liver mitochondria (1 mg protein/ml) in KCl buffer was incubated at 37° C. with 5 μM MitoSNO. 1 μM additions of MitoSNO were made sequentially before addition of 10 mM succinate. 200 nM FCCP was then added to uncouple the mitochondria. The concentrations of O2 and MitoSNO in solution were measured simultaneously using a Clark-type O2 electrode in combination with an ion-selective electrode for triphenylphosphonium cation (TPP^+). […] This can be seen in FIG. 3.
When succinate was added, the mitochondria started respiring and set up a Δψ, which caused a decrease in the MitoSNO concentration, as detected by the ion-selective electrode (FIG. 3). When the mitochondria were uncoupled by FCCP, a concomitant increase in the concentration of MitoSNO, or its derivatives, in the medium was detected by the ion-selective electrode. The amount of MitoSNO taken up into the mitochondria from the trace in FIG. 3 corresponds to ˜2.5 μM of the initial external concentration of 5 μM. Therefore 7.5 nmol MitoSNO have been taken up into 3 mg protein, and as the mitochondrial volume is ˜0.5 μl/mg protein (Brown, G. C. and Brand, M. D. Biochem J., 1985, 225, 399-405), the concentration of MitoSNO within mitochondria is ˜5 mM. This represents a 2000 fold concentration relative to the 2.5 μM present in the external medium, and is consistent with a Nernstian uptake of MitoSNO.

The subject of the next experiment is HeLa cells. The experiment in a line: Cell hypoxia experiment, extracellular pO2 by fluorescence quenching oximetry. The class given is cell-based. The settings on record: 1% O2, 30 min incubation, compared to untreated controls. The method, then: FIG. 10 is a series of traces and graphs showing the effect of MitoSNAP on respiration in cells. (a-d) Jurkat cells (55×10^6 cells) were incubated in PBS supplemented with 25 mM Hepes pH 7.2 (NaOH), 1 mM sodium pyruvate, 10 μM neocuproine and 100 μM DTPA in the stirred 2.5 ml chamber of an oxygen electrode at 37° C. with 5 μM MitoSNAP (a), MitoNAP (b), SNAP (c) or MitoSNAP and FCCP (500 nM) (d). Where indicated 5 μM OxyHb was added. Traces show typical experiments that were repeated at least three times. Sections of the 02 electrode trace where OxyHb was added for (a) and (b) have been expanded 4-fold in the vertical dimension to facilitate inspection. […] Cellular pO2 values, measured by fluorescence quenching oximetry and expressed as mean±sd, are shown. […]
HeLa cells were seeded and grown to 100% confluence with 15 ml medium/dish on 165 cm^2 dishes. […] Extracellular pO2 measurements were taken by fluorescence quenching oximetry (Oxylite-2000; Oxford Optronix). […]
To evaluate the selective uptake of MitoSNAP by mitochondria within cells, the effect of MitoSNAP on respiration by Jurkat cells, a T lymphocyte cell line that grows in suspension, was measured using an O2 electrode (FIG. 10). […] Then the effects of a further 30 min incubation with MitoSNAP, MitoNAP or the mitochondrial inhibitor myxathiazol on the steady-state extracellular pO2 was assessed by fluorescence quenching oximetry (FIG. 10e).

In the case of `NCCN(CCN)/[N+]([O-])=N/O` [Deta-NONOate, 3,3-bis(aminoethyl)-1-hydroxy-2-oxo-1-tri azene, reference compound], in the experiment on liver mitochondria, the “NO concentration generated compared with 5 μM MitoSNAP” value is recorded as “five to ten-fold greater” and the “S-nitrosation less than that caused by 5 μM MitoSNAP” value is reported as ~30 fold. For the same compound, the “S-nitrosation of mitochondrial proteins” value with liver mitochondria (5 min) is ~20 pmol SNO/mg protein.

With `O=NSCCCC[P+](c1ccccc1)(c1ccccc1)c1ccccc1.[Br-]` [MitoSNO], the “amount taken up into 3 mg protein” value in the experiment on rat liver mitochondria (5 μM MitoSNO, succinate) worked out at 7.5 nmol. Besides, the “uptake by isolated mitochondria” value with rat liver mitochondria (energized with 10 mM succinate, reversed by FCCP) is “taken up by isolated mitochondria”. Besides, the concentration within mitochondria with rat liver mitochondria (mitochondrial volume ~0.5 μl/mg protein) is reported as ~5 mM. In addition, the “amount taken up into the mitochondria, as part of the initial external concentration of 5 μM” value in the experiment on rat liver mitochondria (rat liver mitochondria 1 mg protein/ml, 5 μM MitoSNO, succinate) is ~2.5 µM. Besides, in the experiment on rat liver mitochondria (rat liver mitochondria, 5 μM MitoSNO), the “effect on mitochondrial respiration” value was “inhibited respiration by NO release”. The “concentration relative to the external medium” value in the experiment on rat liver mitochondria (relative to 2.5 μM in the external medium) came out at 2000 fold.

For `CO/C(=C/C(N)=O)[C@H](C)[C@H](/C=C/c1csc(-c2csc([C@@H](C)/C=C/C=C/C(C)C)n2)n1)OC` [myxathiazol, reference compound], the “effect on steady-state extracellular pO2 during hypoxia” value in the experiment on HeLa cells is reported as “increased extracellular O2”.
